Like-named read-outs stand apart in the source and are kept apart here. Residues, ends and D or L forms follow the SMILES beside them.
Legend:
hCD14 = target: T1, hCD14 (Homo sapiens, UniProt P08571, C306S); test: Microscale thermophoresis, binding to CD14; details: 10 mM Tris pH 7.4, read-out: Kd (µM) to CD14, MST
T1 construct: His-tag; non-native C-terminal linker with a protease-site-like motif, seen in the peptide map at 335-349 (C); made in house; host or cells: insect cells
T1 sequence (P08571 with tags, fused parts or gaps C306S limits assumed): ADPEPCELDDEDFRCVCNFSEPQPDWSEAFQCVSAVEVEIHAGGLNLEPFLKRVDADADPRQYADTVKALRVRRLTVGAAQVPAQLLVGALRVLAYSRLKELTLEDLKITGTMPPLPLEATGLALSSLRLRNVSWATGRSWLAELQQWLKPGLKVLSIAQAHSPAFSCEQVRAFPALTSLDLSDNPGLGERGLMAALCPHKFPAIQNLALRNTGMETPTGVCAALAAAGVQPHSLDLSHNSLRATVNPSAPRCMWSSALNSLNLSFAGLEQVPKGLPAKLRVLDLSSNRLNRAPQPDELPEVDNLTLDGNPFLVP
Method: Microscale thermophoresis (MST) was performed on a NanoTemper Monolith NT.115 apparatus (Nano Temper Technologies, Germany). A Monolith NT Protein labeling kit RED – NHS (Nano Temper Technologies, Germany) was used to label 20 μM of recombinant hCD14 according to the manufacturer’s protocol. […] The sample was then loaded into standard glass capillaries (Monolith NT Capillaries, Nano Temper Technologies), and MST analysis was performed (settings for the light-emitting diode and infrared laser were 80%).

[1] = test system: THP1-XBlue-CD14 reporter cells
Method: (§5) Effects on NF-κB activation were assessed using THP1-XBlue-CD14 reporter cells (InvivoGen, San Diego, CA, USA). Briefly, 180,000 cells well^−1 were seeded in 96-well plates in phenol red RPMI media, supplemented with 10% (vv^−1) heat-inactivated FBS and 1% (vv^−1) Antibiotic-Antimycotic solution (AA). […] NF-κB activation was determined after 20 h of incubation according to the manufacturer’s instructions (InvivoGen, San Diego, CA, USA) by mixing 20 μL of supernatant with 180 μL of SEAP detection reagent (Quanti-BlueTM, InvivoGen, San Diego, CA, USA), followed by absorbance measurement at 600 nm. Data shown are mean values ± SD obtained from at least four independent experiments, all made in triplicate. In another set of experiments, the cells were stimulated with 100 ng mL^−1 of E. coli LPS, 1 μg mL^−1 S. aureus LTA, 1 μg mL^−1 E. coli PGN, 1 μg mL^−1 S. aureus PGN, or 10 μg mL^−1 S. cerevisiae zymosan in the presence or the absence of 10 μM of linear and stapled HVF18. The experiment was performed as described above.

in vitro = details: human, THP1-XBlue-CD14 reporter cells, Cell viability
Method: as §5

[2] = Cell viability of THP1-XBlue-CD14 reporter cells; details: human; for viability at 20 h, 1 µM: 1 µM peptide; for viability at 20 h, 2 µM: 2 µM peptide; for viability at 20 h, 5 µM: 5 µM peptide; for viability at 20 h, 10 µM: 10 µM peptide; for viability at 20 h, 20 µM: 20 µM peptide
Method: as §5

[3] = target: T2, human neutrophil elastase (HNE) (Homo sapiens, UniProt P08246); test: Protease degradation with human neutrophil elastase (SDS-PAGE, RP-HPLC, LC-MS/MS); assay type: in vitro ADME
T2 construct: purchased Calbiochem, Merck, Darmstadt, Germany
T2 sequence (P08246 30-267): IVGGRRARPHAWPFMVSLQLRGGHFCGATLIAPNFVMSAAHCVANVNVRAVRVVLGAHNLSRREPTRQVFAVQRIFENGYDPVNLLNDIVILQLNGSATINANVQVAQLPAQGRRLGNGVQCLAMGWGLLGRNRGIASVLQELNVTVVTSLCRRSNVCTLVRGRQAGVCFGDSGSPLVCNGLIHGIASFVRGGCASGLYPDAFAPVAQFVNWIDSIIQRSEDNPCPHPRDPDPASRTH
Method: (§1) The peptide was pre-mixed with Buffer A (1:3) 5 min before being loaded on the column. Protease-digested peptides were analyzed by HPLC as described above. Samples from two different digestions were analyzed.
(§2) Peptides were resuspended in endotoxin-free water at a final concentration of 1 mM. […] All digestions were performed in three independent experiments.
(§3) Two micrograms of peptide from each condition were loaded on 10–20% Novex Tricine pre-cast gels (Invitrogen, Carlsbad, CA, USA). The run was performed at 100 V for 100 min. The gel was stained by using Coomassie Brilliant blue (Invitrogen, Carlsbad, CA, USA), and images were acquired with a Gel Doc Imager (Bio-Rad Laboratories, Hercules, CA, USA). Samples from three independent digestions were analyzed.
(§4) LC-MS/MS analysis was performed using an HFX Orbitrap MS system (Thermo Scientific, San Jose, CA, USA) equipped with a Dionnex 3000 Ultimate HPLC (Thermo Fisher, USA). Settings were used as previously described by Petruk et al.[55] with minor changes. […] The precursor tolerance was set to 10 ppm and 0.02 Da for the MSMS fragments, and no enzyme was selected, allowing unspecific cleavage. Samples from two independent digestions were analyzed.

[4] = target: T3, P. aeruginosa elastase (PE) (Pseudomonas aeruginosa, UniProt P14756); assay type: in vitro ADME
T3 construct: purchased Calbiochem, Merck, Darmstadt, Germany
Method: as §1, §2, §3, §4

[5] = CD analysis after exposure to 80 °C (conformational stability); assay type: physicochemical; details: then CD, minima at 208 and 222 nm

T3 sequence (P14756 198-498): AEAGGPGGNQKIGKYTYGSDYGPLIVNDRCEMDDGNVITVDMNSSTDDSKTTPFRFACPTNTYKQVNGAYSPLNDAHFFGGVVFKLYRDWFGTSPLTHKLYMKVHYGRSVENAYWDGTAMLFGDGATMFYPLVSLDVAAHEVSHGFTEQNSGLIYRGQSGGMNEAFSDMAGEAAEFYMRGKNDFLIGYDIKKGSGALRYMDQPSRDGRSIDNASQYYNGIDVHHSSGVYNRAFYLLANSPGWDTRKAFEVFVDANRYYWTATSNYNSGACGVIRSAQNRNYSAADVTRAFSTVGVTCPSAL

Compound | Cell viability, PGN-EB 1 µg/ml + peptide [1] | viability at 20 h, 10 µM (in vitro; LTA 1 µg/ml + peptide) [%] | viability at 20 h, 10 µM (in vitro; PGN-SA 10 µg/ml + peptide) [%] | viability at 20 h, 1 µM ([2]; with LPS, replicate 1) [%] | viability at 20 h, 1 µM ([2]; with LPS, replicate 2) [%] | viability at 20 h, 1 µM ([2]; with LPS, replicate 3) [%] | viability at 20 h, 1 µM ([2]; with LPS, replicate 4) [%] | viability at 20 h, 2 µM ([2]; with LPS, replicate 1) [%] | viability at 20 h, 2 µM ([2]; with LPS, replicate 2) [%] | viability at 20 h, 2 µM ([2]; with LPS, replicate 3) [%] | viability at 20 h, 2 µM ([2]; with LPS, replicate 4) [%] | viability at 20 h, 5 µM ([2]; with LPS, replicate 1) [%] | viability at 20 h, 5 µM ([2]; with LPS, replicate 2) [%] | viability at 20 h, 5 µM ([2]; with LPS, replicate 3) [%] | viability at 20 h, 5 µM ([2]; with LPS, replicate 4) [%] | viability at 20 h, 10 µM ([2]; with LPS, replicate 1) [%] | viability at 20 h, 10 µM ([2]; with LPS, replicate 2) [%] | viability at 20 h, 10 µM ([2]; with LPS, replicate 3) [%] | viability at 20 h, 10 µM ([2]; with LPS, replicate 4) [%] | viability at 20 h, 20 µM ([2]; with LPS, replicate 1) [%] | other results
CC[C@H](C)[C@H](NC(=O)[C@H](Cc1c[nH]c2ccccc12)NC(=O)[C@H](CCCCN)NC(=O)[C@H](CCCCN)NC(=O)[C@H](CC(C)C)NC(=O)[C@H](CCCNC(=N)N)NC(=O)[C@H](Cc1ccccc1)NC(=O)[C@@H](NC(=O)[C@@H](N)Cc1cnc[nH]1)C(C)C)C(=O)N[C@@H](CCC(N)=O)C(=O)N[C@@H](CCCCN)C(=O)N[C@H](C(=O)N[C@H](C(=O)N[C@@H](CC(=O)O)C(=O)N[C@@H](CCC(N)=O)C(=O)N[C@@H](Cc1ccccc1)C(=O)NCC(=O)N[C@@H](CCC(=O)O)C(=O)O)[C@@H](C)CC)C(C)C [HVF18] (H-HVFRLKKWIQKVIDQFGE-OH) | 85.0457 | 105 | 74.3 | 79.5 | 76.5 | 83.4 | 78.1 | 94.1 | 84.3 | 83.2 | 88.3 | 107 | 97.5 | 80.5 | 82.3 | 89.5 | 92.1 | 82.5 | 103 | 90.6 | Kd (hCD14; with NaCl (150 mM), measurement 1): 3.2 µM; Kd (hCD14; with NaCl (150 mM), measurement 2): 2.5 µM; Kd (hCD14; with NaCl (150 mM), measurement 3): 1.1 µM; Kd (hCD14; with NaCl (150 mM), measurement 4): 2.7 µM; Kd (hCD14; with NaCl (150 mM), measurement 5): 2.5 µM; Kd (hCD14; with NaCl (150 mM), measurement 6): 1.6 µM; Kd (hCD14; without NaCl, measurement 1): 8.3 µM; Kd (hCD14; without NaCl, measurement 2): 6.2 µM; Kd (hCD14; without NaCl, measurement 3): 5.9 µM; Kd (hCD14; without NaCl, measurement 4): 8.7 µM; Kd (hCD14; without NaCl, measurement 5): 7.5 µM; Kd (hCD14; without NaCl, measurement 6): 2.1 µM; viability at 20 h, 20 µM ([2]; with LPS, replicate 2): 85.3%; viability at 20 h, 20 µM ([2]; with LPS, replicate 3): 77.4%; viability at 20 h, 20 µM ([2]; with LPS, replicate 4): 91.1%; viability at 20 h, 20 µM ([2]; without LPS, replicate 1): 99.3%; viability at 20 h, 20 µM ([2]; without LPS, replicate 2): 72.9%; viability at 20 h, 20 µM ([2]; without LPS, replicate 3): 84.9%; viability at 20 h, 20 µM ([2]; without LPS, replicate 4): 73.7%
CC[C@H](C)[C@H](NC(=O)[C@H](Cc1c[nH]c2ccccc12)NC(=O)[C@H](CCCCN)NC(=O)[C@H](CCCCN)NC(=O)[C@H](CC(C)C)NC(=O)[C@H](CCCNC(=N)N)NC(=O)[C@H](Cc1ccccc1)NC(=O)[C@@H](NC(=O)[C@@H](N)Cc1c[nH]cn1)C(C)C)C(=O)N[C@@]1(C)CCCC=CCCC[C@@](C)(C(=O)N[C@@H](CCC(N)=O)C(=O)N[C@@H](Cc2ccccc2)C(=O)NCC(=O)N[C@@H](CCC(=O)O)C(=O)O)NC(=O)[C@H]([C@@H](C)CC)NC(=O)[C@H](C(C)C)NC(=O)[C@H](CCCCN)NC1=O [sHVF18] | 75.0616 | 91.3 | 55.8 | 88.7 | 90.5 | 78.9 | 86.3 | 102 | 92.8 | 74.9 | 96.3 | 106 | 93.7 | 79.1 | 95 | 99.1 | 88.8 | 82.4 | 87.8 | 104 | Fragmentation seen by LC-MS/MS after HNE digestion (in words) [3]: no identified sHVF18 fragments; Resistance to P. aeruginosa elastase (in words) ([4]; 0.2 µg PE, 0–18 h, SDS-PAGE, RP-HPLC, LC-MS/MS, versus linear peptide): improved resistance; Fragmentation seen by LC-MS/MS after PE digestion (in words) ([4]; 30 min and 3 h): no identified sHVF18 fragments; Conformational stability after exposure to 80 °C (CD analysis) [5]: still presented an α-helical spectrum; Cell viability, PGN-SA 10 µg/ml + peptide [1]: 69.8483; Cell viability, Zymosan 10 µg/ml + peptide [1]: 73.0816; viability at 20 h, 20 µM ([2]; with LPS, replicate 2): 70.9%; viability at 20 h, 20 µM ([2]; with LPS, replicate 3): 67.5%; viability at 20 h, 20 µM ([2]; with LPS, replicate 4): 77.9%; viability at 20 h, 20 µM ([2]; without LPS, replicate 1): 112%; viability at 20 h, 20 µM ([2]; without LPS, replicate 2): 69.7%; viability at 20 h, 20 µM ([2]; without LPS, replicate 3): 81.5%; viability at 20 h, 20 µM ([2]; without LPS, replicate 4): 90.5%

From PMC10541425, “Targeting Toll-like receptor-driven systemic inflammation by engineering an innate structural fold into drugs” (Nature Communications, 2023)
